Assay results published in US12630512B2, “Agents for differentiating stem cells and treating cancer” (Minerva Biotechnologies Corporation, priority 2017, dated 2026).

Tests used:
Format in all cases: cell-based
[1] = test system: human primed state stem cells; experiment: Stem cell drug screen on primed state stem cells (pluripotency, proliferation, differentiation); settings: primed state stem cells; 6 uM per FIGS. 46-64
Procedure: (§1) The stem cell screening assay, was performed in both the presence and absence of the stem cell growth factors: NME7AB for growing naïve stem cells or FGF for growing primed stem cells. If the cognate growth factor was present, then the biological or small molecule would have to compete away the growth factor to get an effect. Therefore, we expected to see more of an effect when the growth factor, FGF for primed stem cells or NME7AB or NME1 dimers for naïve stem cells, was absent. The effect of the compounds on stem cells was visually determined and compounds were ranked 0-4, with 4 being the greatest effect and 0 being no observable effect. The major effect that was observed was a change from pluripotent stem cell morphology, which is a cobblestone pattern of small round cells with a large nucleus to cytoplasm ratio, to that of differentiating stem cells, which are elongated, large and flattened cells with a smaller nucleus to cytoplasm ratio. […] The compounds were added to a final concentration of 6 uM to either naïve state stem cells or primed state stem cells. In this particular case, the naïve state stem cells were maintained in a naïve state by culturing in a media containing NME7AB or NME1 dimers. However, other methods such as 2i and 5i (Silva et al., 2008, Nichols and Smith, 2009, Theunissen et al., 2014)] can be used to maintain stem cells in a more naïve state. In this case primed state stem cells were cultured in bFGF over a layer of MEFs, although it is known that any bFGF containing media will maintain stem cells in the primed state.
(§2) Percent inhibition of cancer cell migration was performed in a wound healing assay. The percent area that the invading cancer cells occupied, in the presence of a drug candidate compared to the controls, was quantified by Image J cell software which enables cell counting from photographs. IC50's were calculated by performing migration experiments at several compound concentrations and then applying Hill's equation. Inhibition of cancer cell proliferation was quantified by automated cell counting in the presence or absence of a drug candidate. Here, the inhibition of cancer cell proliferation was scored 1 if proliferation was inhibited by 25%, 2 if inhibited by […] and 4 for the highest degree of inhibition of proliferation, and 0 for the lowest. The effect of the drug candidates on stem cell pluripotency or proliferation was scored by eye, based on cell morphology and cell density, with 0 being no change in morphology or cell number and 4 being the most profound effect, with the stem cells taking on the morphology of a differentiating cell, along with much fewer cells indicative of inhibition of proliferation. As an example, FIGS. 30A-30F show photographs of naïve stem cell, primed stem cell and fibroblast controls. FIGS. 31A-31F show the effect of compounds of the invention on naïve state stem cells, where the number of ‘+’ signs indicates the score from 0-4 of ability of compound to inhibit pluripotency, proliferation of naïve stem cells or ability to induce their differentiation. […] FIGS. 36-44 and 65-87 show photographs and IC50 graphs of the compounds of the invention, inhibiting cancer cell migration and invasion. Cancer cell migration is a hallmark of metastatic cancer.
Stem cells whether embryonic or induced pluripotent stem (iPS) cells were cultured in a minimal, serum-free media that contained human recombinant bFGF at a concentration of 8 ng/mL. The stem cells were plated over a layer of inactivated mouse embryonic fibroblasts, aka MEFs, which secrete additional uncharacterized growth factors and cytokines.
Human naïve state and primed stem cells were cultured in parallel for at least 5 passages to guarantee normal differentiation-free growth. The stem cells were plated in 12-well cell culture plates with 50,000 cells per well. Cells were cultured in their respective media, either bFGF media or NME7AB media for 24 hours. […]

[2] = test system: human fibroblasts; experiment: Effect on fibroblasts as surrogate for normal cells; settings: fibroblasts as surrogate for normal cells; 6 uM
Description: However, fibroblasts are more differentiated than stem cells but are able to self-replicate for defined periods of time. We tested selected compounds of the invention to determine if these compounds were just cytotoxic or if they selectively affected stem cells and, importantly, cancer cells, but not normal, healthy cells. Here, we used fibroblasts as a surrogate for normal cells. […] […] Each compound was scored for its effect on fibroblast proliferation where “+” indicates 25% inhibition of fibroblast growth, “++” 50% inhibition and “+++” 75% inhibition of growth.

[3] = test system: human naïve state stem cells; experiment: Stem cell drug screen on naïve state stem cells (pluripotency, proliferation, differentiation); parameters: key to score for inhibition of naïve stem cell pluripotency and proliferation: 0 being no change in morphology or cell number; 4 being the most profound effect; settings: naïve state stem cells; for inhibition at 6 µM: Homo sapiens, 6 uM final concentration per FIGS. 46-64, read-out: inhibited naïve stem cell pluripotency and proliferation; for score for inhibition of naïve stem cell pluripotency and proliferation: scored by eye 0-4, 6 uM per FIGS. 46-64
Procedure: as §1, §2
Stem cells whether embryonic or induced pluripotent stem (iPS) cells were cultured in a minimal, serum-free media that contained human recombinant NME7AB at a concentration of 2-32 nM wherein 4-8 nM is preferred and 4 nM is more preferred. To facilitate surface attachment, cell culture plates were coated with an anti-MUC1* monoclonal antibody called MN-C3 or C3 or MN-C8 at a concentration of 2-100 μg/mL coating solution, wherein 3-50 ug/mL is preferred and 6-12.5 ug/mL is more preferred. In these experiments, 12.5 ug/mL of MN-C3 was used. Antibody coated plates were incubated at 4 degrees C. overnight prior to plating stem cells. A Rho kinase I inhibitor was added to enhance surface attachment. […]

Structure (SMILES)	effect on primed state stem cells [1]	effect on fibroblast cells [2]	inhibition at 6 µM [3]	score for inhibition of naïve stem cell pluripotency and proliferation [3]
CN(C[C@H]1CC[C@H](C(=O)N2CCc3c([nH]c4ccccc34)C2C2CC2)CC1)C(=O)NC(C)(C)C (stereo partly drawn) [MN1413]	no effect	no effect	100%	4
C[C@@H]1Cc2c([nH]c3ccccc23)CN1C(=O)C1CCC(CN(C)C(=O)NC(C)(C)C)CC1 (stereo partly drawn) [MN1423]	no effect	no effect	100%	4
CN(CC1CCC(C(=O)N2CCC(c3ccncc3)CC2)CC1)C(=O)OC(C)(C)C (stereo not drawn) [MN1428, Tert-butyl methyl((4-(4-(pyridin-4-yl)piperidine-1-carbonyl)cyclohexyl)methyl)carbamate]	no effect	no effect	100%	4
